Target: T1, human topoisomerase I (Homo sapiens, UniProt P11387)
T1 construct: purchased Sigma-Aldrich (St. Louis, MO, USA)
T1 sequence (P11387 1-765): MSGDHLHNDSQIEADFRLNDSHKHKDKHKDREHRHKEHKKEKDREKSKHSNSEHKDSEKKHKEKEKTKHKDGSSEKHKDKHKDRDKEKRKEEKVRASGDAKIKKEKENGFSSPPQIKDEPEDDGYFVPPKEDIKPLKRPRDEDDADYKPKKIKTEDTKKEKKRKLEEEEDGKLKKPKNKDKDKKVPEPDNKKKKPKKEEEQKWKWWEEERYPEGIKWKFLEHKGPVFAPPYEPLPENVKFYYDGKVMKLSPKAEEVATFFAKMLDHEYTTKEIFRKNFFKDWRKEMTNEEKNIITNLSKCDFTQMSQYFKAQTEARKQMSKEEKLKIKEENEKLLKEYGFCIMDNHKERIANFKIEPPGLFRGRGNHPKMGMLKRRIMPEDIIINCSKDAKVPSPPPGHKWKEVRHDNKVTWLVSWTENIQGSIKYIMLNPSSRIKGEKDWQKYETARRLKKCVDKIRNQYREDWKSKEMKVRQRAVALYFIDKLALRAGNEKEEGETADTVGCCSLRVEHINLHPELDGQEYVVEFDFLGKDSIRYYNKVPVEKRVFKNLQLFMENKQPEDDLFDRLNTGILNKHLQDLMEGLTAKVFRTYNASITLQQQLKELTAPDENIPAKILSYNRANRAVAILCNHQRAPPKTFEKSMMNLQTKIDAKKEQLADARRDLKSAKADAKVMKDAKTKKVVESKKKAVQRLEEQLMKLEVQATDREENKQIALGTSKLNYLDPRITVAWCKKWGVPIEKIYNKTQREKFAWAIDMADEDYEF
Experiment: TOP1 DNA relaxation assay
Format: biochemical
Conditions: 20 μM
Experimental: The ability to relax DNA conformations is a central function of topoisomerase enzymes. Several studies have associated some proapoptotic compounds with the ability to inhibit topoisomerase enzymes. The ability of the selected compounds to inhibit TOP1 or TOP2 activity was determined. In this experiment, daunorubicin was used as a positive control for TOP1/2 inhibition, as previously reported. […] It is important to note the potential for cardiotoxicity associated with some TOP2 inhibitors, which highlights the relevance of assessing compound 14c’s interaction with TOP2B. […] Future studies should include assays to evaluate the specific activity of 14c against both TOP2A and TOP2B to provide a more comprehensive safety profile, as isoform-selective TOP2 inhibitors may offer a therapeutic advantage by reducing adverse effects.
TOP1 activity was assayed by the relaxation of supercoiled DNA (pEGFP-N1) as the manufacturer’s instructions indicated. Briefly, human recombinant TOP1 and buffer assay were obtained from Sigma-Aldrich (St. Louis, MO, USA). […]
Figure 7 The effect of sesquiterpene aryl esters on TOP1- and TOP2-induced DNA relaxation was assessed. (A) The TOP1 inhibition assay evaluated the compounds (10c, 11c, 12c, 13c, and 14c) at a concentration of 20 μM in a DNA relaxation assay. […]

## COc1cc2c(cc1OC)[C@]1(C)CCC3C(C)(C)CCC[C@]3(C)C1=C2 (stereo partly drawn) [Compound 14c, (6aR,11bS)-8,9-Dimethoxy-4,4,6a,11b-tetramethyl-2,3,4,4a,5,6,6a,11b-octahydro-1H-benzo[a]fluorene]
  inhibition of TOP1-induced DNA relaxation: did not show significant inhibition
